Laboratory results taken from patent publication US8399482B2, “6-substituted isoquinolines and isoquinolinones” (Sanofi, priority 2008, dated 2013).

Assays:
Type in all cases: biochemical
[1] = target: T1, recombinant human PKG1-beta (Homo sapiens, UniProt Q13976); assay: Determination of Protein Kinase G inhibition (selectivity); conditions: from IC50 values
T1 construct: PKG1-beta (full-length, with N-terminal His-tag); His-tag (N); purchased Millipore GmbH, Schwalbach, Germany
T1 sequence (Q13976 1-686 isoform Q13976-2): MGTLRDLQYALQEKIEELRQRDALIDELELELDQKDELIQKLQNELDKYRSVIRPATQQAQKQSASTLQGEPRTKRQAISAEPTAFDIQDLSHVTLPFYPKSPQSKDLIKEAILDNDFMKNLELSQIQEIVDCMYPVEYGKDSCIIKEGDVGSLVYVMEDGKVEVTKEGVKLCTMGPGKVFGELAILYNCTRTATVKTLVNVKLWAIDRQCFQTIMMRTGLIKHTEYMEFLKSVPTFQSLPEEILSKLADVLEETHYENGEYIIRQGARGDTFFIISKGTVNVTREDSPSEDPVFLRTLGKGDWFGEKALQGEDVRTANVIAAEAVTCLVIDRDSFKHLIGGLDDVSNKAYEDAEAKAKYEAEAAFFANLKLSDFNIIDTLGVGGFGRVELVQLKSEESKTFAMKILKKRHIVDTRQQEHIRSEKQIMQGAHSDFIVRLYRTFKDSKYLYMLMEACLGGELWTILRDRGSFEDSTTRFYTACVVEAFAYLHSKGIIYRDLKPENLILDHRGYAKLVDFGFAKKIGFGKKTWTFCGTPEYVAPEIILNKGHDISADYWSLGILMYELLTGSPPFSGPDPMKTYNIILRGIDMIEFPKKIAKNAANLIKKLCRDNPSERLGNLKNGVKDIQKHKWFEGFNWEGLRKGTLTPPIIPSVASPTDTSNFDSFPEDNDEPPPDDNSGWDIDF
Protocol: (§1) 2) Determination of Protein Kinase a and Protein Kinase G Inhibition
(§2) To measure PKA and PKG1-beta inhibition, IC50 values were determined according to the following protocol:
(§3) Active recombinant human PKG1-beta (full-length, with N-terminal His-tag) was purchased from Millipore GmbH, Schwalbach, Germany. Active recombinant human PKA (residues 1-351, N-terminal His-tag) was obtained from Invitrogen, Karlsruhe, Germany. The peptide substrate, Fluorescein-[…]-COOH, was obtained from JPT Peptide Technologies, Berlin, Germany. Adenosine-5′-triphosphate (ATP), bovine serum albumine (BSA), dimethylsulphoxide (DMSO), 4-(2-Hydroxyethyl)piperazine-1-ethanesulfonic acid (Hepes), Brij-35, dithiothreitol (DTT) and Pluronic F-68 were purchased from Sigma-Aldrich, Munich, Germany. Tris(hydroxymethyl)-aminomethane (Tris), magnesium chloride, NaOH, 1M HCl and EDTA were obtained from Merck Biosciences, Darmstadt, Germany. “Complete” protease inhibitor was from Roche Diagnostics, Mannheim, Germany. Test compounds were diluted to the appropriate concentrations in buffer 1 (25 mM Tris-HCl, pH 7.4, 5 mM MgCl2, 2 mM DTT, 0.02% (w/v) BSA, 0.01% Pluronic F-68 and 3% DMSO). PKG1-beta and PKA were diluted to concentrations of 150 ng/ml and 30 ng/ml, respectively, in buffer 2. The peptide substrate and ATP were diluted to concentrations of 3 μM and 120 μM, respectively, in the buffer 2. Two μl of the compound solution were mixed with 2 μl of the diluted enzyme in a 384-well small volume microtiter plate (Greiner, Bio-One, Frickenhausen, Germany), and the kinase reaction was initiated by addition of 2 μl of the solution containing peptide substrate and ATP. After 60 min incubation at 32° C., the reaction was stopped by addition of 20 μl of a solution containing 100 mM Hepes-NaOH, pH 7.4, 0.015% (v/v) Brij-35, 45 mM EDTA and 0.227% chip coating reagent 1 (Caliper Lifescience Inc, Hopkinton, Mass.). Phosphorylation of the substrate peptide was then detected on a Caliper 3000 instrument essentially as described by Pommereau et al (J. Biomol. Screening 9(5), 409-416, 2004). Separation conditions were as follows: Pressure −1.3 psi, upstream voltage −1562 V, downstream voltage −500 V, sample sip time 200 ms, Positive controls (buffer 1 instead of compound) and negative controls (buffer 1 instead of compound and buffer 2 instead of kinase solution) were run in parallel on each plate. The following products/compounds were tested in said assay by using the respective form (salt or free base) obtained as in the examples described above and the following activities were measured.

[2] = target: T2, recombinant human PKA (Homo sapiens, UniProt P17612); assay: Determination of Protein Kinase A inhibition (selectivity); conditions: from IC50 values
T2 construct: recombinant human PKA (residues 1-351, N-terminal His-tag); His-tag (N); purchased Invitrogen, Karlsruhe, Germany
Protocol: as §1, §2, §3

[3] = target: T3, human recombinant ROCK II (Homo sapiens, UniProt O75116); assay: Determination of Rho kinase inhibition (ROCK II, Caliper peptide phosphorylation assay); conditions: respective form (salt or free base) as obtained in the examples, 60 min at 32° C.
T3 construct: recombinant human ROCK-II residues 11-552; His6 (N); purchased Millipore GmbH, Schwalbach, Germany
T3 sequence (O75116 11-552): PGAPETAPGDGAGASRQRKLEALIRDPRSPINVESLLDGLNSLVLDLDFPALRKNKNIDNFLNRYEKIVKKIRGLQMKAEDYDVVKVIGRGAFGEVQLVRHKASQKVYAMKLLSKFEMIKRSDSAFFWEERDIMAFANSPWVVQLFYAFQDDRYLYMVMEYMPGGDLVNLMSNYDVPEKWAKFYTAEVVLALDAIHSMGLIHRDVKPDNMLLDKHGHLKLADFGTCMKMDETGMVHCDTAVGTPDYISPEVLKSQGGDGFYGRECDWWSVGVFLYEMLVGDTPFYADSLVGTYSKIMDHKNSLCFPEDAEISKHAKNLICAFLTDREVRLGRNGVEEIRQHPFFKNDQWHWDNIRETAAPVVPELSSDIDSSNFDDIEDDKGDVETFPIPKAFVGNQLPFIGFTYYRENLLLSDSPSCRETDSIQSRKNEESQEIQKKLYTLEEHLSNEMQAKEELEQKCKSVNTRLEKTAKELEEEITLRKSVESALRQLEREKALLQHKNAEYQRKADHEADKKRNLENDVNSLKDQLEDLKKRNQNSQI
Protocol: To measure Rho-kinase inhibition, IC50 values were determined according to the following protocol:
Active human recombinant ROCK II (N-terminal His6-tagged recombinant human ROCK-II residues 11-552) was purchased from Millipore GmbH, Schwalbach, Germany. The peptide substrate, Fluorescein-[…]-COOH, was obtained from JPT Peptide Technologies, Berlin, Germany. Adenosine-5′-triphosphate (ATP), bovine serum albumine (BSA), dimethylsulphoxide (DMSO), 4-(2-hydroxyethyl)piperazine-1-ethanesulfonic acid (Hepes), Brij-35, dithiothreitol (DTT) and Pluronic F-68 were purchased from Sigma-Aldrich, Munich, Germany. Tris(hydroxymethyl)-aminomethane (Tris), magnesium chloride, NaOH, 1M HCl and EDTA were obtained from Merck Biosciences, Darmstadt, Germany. “Complete” protease inhibitor was from Roche Diagnostics, Mannheim, Germany. Test compounds were diluted to the appropriate concentrations in buffer 1 (25 mM Tris-HCl, pH 7.4, 5 mM MgCl2, 2 mM DTT, 0.02% (w/v) BSA, 0.01% Pluronic F-68 and 3% DMSO). The ROCK II enzyme was diluted to a concentration of 100 ng/mL in buffer 2 (25 mM Tris-HCl, pH 7.4, 5 mM MgCl2, 2 mM DTT and 0.02% (w/v) BSA). The peptide substrate and ATP were diluted to concentrations of 3 μM and 120 μM, respectively, in the buffer 2. Two μl of the compound solution were mixed with 2 μl of the diluted enzyme in a 384-well small volume microtiter plate (Greiner, Bio-One, Frickenhausen, Germany), and the kinase reaction was initiated by addition of 2 μl of the solution containing peptide substrate and ATP. After 60 min incubation at 32° C., the reaction was stopped by addition of 20 μl of a solution containing 100 mM Hepes-NaOH, pH 7.4, 0.015% (v/v) Brij-35, 45 mM EDTA and 0.227% chip coating reagent 1 (Caliper Lifescience Inc, Hopkinton, Mass.). Phosphorylation of the substrate peptide was then detected on a Caliper 3000 instrument essentially as described by Pommereau et al (J. Biomol. Screening 2004, 9(5), 409-416). Separation conditions were as follows: Pressure −1.3 psi, upstream voltage −1562 V, downstream voltage −500 V, sample sip time 200 ms. Positive controls (buffer 1 instead of compound) and negative controls (buffer 1 instead of compound and buffer 2 instead of ROCK II) were run in parallel on each plate.
The following products/compounds were tested in said assay by using the respective form (salt or free base) obtained as in the examples described above and the following activities were measured

Row | SMILES | Selectivity against PKG [1] | Selectivity against PKA [2] | IC50 [3]
1 | CCC(N)[C@]1(C2CCOCC2)CC[C@H](Oc2cc3cc[nH]c(=O)c3cc2Cl)CC1 (mixture of isomers) [Example 1, cis-6-[4-(1-Aminopropyl)-4-(tetrahydropyran-4-yl)-cyclohexyloxy]-7-chloro-2H-isoquinolin-1-one] | >300 fold | >1000 fold | ≤ 10 nM
2 | CCC(N)[C@]1(C2CCOCC2)CC[C@H](Oc2cc3cc[nH]c(=O)c3cc2Cl)CC1 (single isomer, unassigned) [Example 2, 6-[4-(1-Aminopropyl)-4-(tetrahydropyran-4-yl)-cyclohexyloxy]-7-chloro-2H-isoquinolin-1-one] | >1 fold | >10 fold | 100 to 1000 nM
3 | CCC1(C(C)N)CCC(Oc2cc3cc[nH]c(=O)c3cc2Cl)CC1 (single isomer, unassigned) [Example 3, 6-[4-(1-Amino-ethyl)-4-ethyl-cyclohexyloxy]-7-chloro-2H-isoquinolin-1-one] | >1000 fold | >1000 fold | ≤ 10 nM
4 | CCC1(C(C)N)CCC(Oc2cc3cc[nH]c(=O)c3cc2Cl)CC1 (single isomer, unassigned) [Example 4, 6-[4-(1-Amino-ethyl)-4-ethyl-cyclohexyloxy]-7-chloro-2H-isoquinolin-1-one] | >100 fold | >300 fold | 10 to 100 nM
5 | CCCC1(C(N)CC)CCC(Oc2cc3cc[nH]c(=O)c3cc2Cl)CC1 (single isomer, unassigned) [Example 5, 6-[4-(1-Amino-propyl)-4-propyl-cyclohexyloxy]-7-chloro-2H-isoquinolin-1-one] | >1000 fold | >1000 fold | ≤ 10 nM
6 | CCC(N)C1(C(C)C)CCC(Oc2cc3cc[nH]c(=O)c3cc2Cl)CC1 (single isomer, unassigned) [Example 8, 6-[4-(1-Amino-propyl)-4-isopropyl-cyclohexyloxy]-7-chloro-2H-isoquinolin-1-one] | >100 fold | >100 fold | ≤ 10 nM
7 | CCC(N)C1(C(C)C)CCC(Oc2cc3cc[nH]c(=O)c3cc2Cl)CC1 (single isomer, unassigned) [Example 9, 6-[4-(1-Amino-propyl)-4-isopropyl-cyclohexyloxy]-7-chloro-2H-isoquinolin-1-one] | >10 fold | >10 fold | 10 to 100 nM
8 | CCC(N)C1(Cc2ccccc2)CCC(Oc2cc3cc[nH]c(=O)c3cc2Cl)CC1 (single isomer, unassigned) [Example 31, 6-[4-(1-Amino-propyl)-4-benzyl-cyclohexyloxy]-7-chloro-2H-isoquinolin-1-one] | >100 fold | >10 fold | –
9 | CC(C)C(N)C1(C(C)C)CCC(Oc2cc3cc[nH]c(=O)c3cc2Cl)CC1 (stereo not shown) [Example 89, 6-[4-(1-Amino-2-methyl-propyl)-4-isopropyl-cyclohexyloxy]-7-chloro-2H-isoquinolin-1-one] | – | – | 100 to 1000 nM
10 | CCC[C@]1(C(C)N)CC[C@@H](Oc2cc3ccnc(N)c3cc2Cl)CC1 (stereo partly drawn) [Example 100, cis-6-[4-(1-Amino-ethyl)-4-propyl-cyclohexyloxy]-7-chloro-isoquinolin-1-ylamine] | – | – | 100 to 1000 nM

Other lines, results leading:

Row | Selectivity against PKG [1] | Selectivity against PKA [2] | IC50 [3] | SMILES
11 | >1000 fold | >1000 fold | ≤ 10 nM | CCCC1(C(N)C2CC2)CCC(Oc2cc3cc[nH]c(=O)c3cc2Cl)CC1 (single isomer, unassigned) [Example 6, 6-[4-(Amino-cyclopropyl-methyl)-4-propyl-cyclohexyloxy]-7-chloro-2H-isoquinolin-1-one]
12 | >100 fold | >300 fold | 10 to 100 nM | CCCC1(C(N)C2CC2)CCC(Oc2cc3cc[nH]c(=O)c3cc2Cl)CC1 (single isomer, unassigned) [Example 7, 6-[4-(Amino-cyclopropyl-methyl)-4-propyl-cyclohexyloxy]-7-chloro-2H-isoquinolin-1-one]
13 | >300 fold | >1000 fold | ≤ 10 nM | CC(N)C1(CC2CC2)CCC(Oc2cc3cc[nH]c(=O)c3cc2Cl)CC1 (single isomer, unassigned) [Example 10, 6-[4-(1-Amino-ethyl)-4-cyclopropylmethyl-cyclohexyloxy]-7-chloro-2H-isoquinolin-1-one]
14 | >300 fold | >100 fold | 10 to 100 nM | CC(N)C1(CC2CC2)CCC(Oc2cc3cc[nH]c(=O)c3cc2Cl)CC1 (single isomer, unassigned) [Example 11, 6-[4-(1-Amino-ethyl)-4-cyclopropylmethyl-cyclohexyloxy]-7-chloro-2H-isoquinolin-1-one]
15 | >300 fold | >1000 fold | ≤ 10 nM | CCC(N)C1(CC2CC2)CCC(Oc2cc3cc[nH]c(=O)c3cc2Cl)CC1 (single isomer, unassigned) [Example 12, 6-[4-(1-Amino-propyl)-4-cyclopropyl-methyl-cyclohexyl-oxy]-7-chloro-2H-isoquinolin-1-one]
